molecular target: GCN2 (Homo sapiens, UniProt Q9P2K8); experiment: TR-FRET biochemical assay for inhibition of GCN2 (Example 106, for Example 1-4BB); details: Table 8
Sequence (Q9P2K8 whole entry): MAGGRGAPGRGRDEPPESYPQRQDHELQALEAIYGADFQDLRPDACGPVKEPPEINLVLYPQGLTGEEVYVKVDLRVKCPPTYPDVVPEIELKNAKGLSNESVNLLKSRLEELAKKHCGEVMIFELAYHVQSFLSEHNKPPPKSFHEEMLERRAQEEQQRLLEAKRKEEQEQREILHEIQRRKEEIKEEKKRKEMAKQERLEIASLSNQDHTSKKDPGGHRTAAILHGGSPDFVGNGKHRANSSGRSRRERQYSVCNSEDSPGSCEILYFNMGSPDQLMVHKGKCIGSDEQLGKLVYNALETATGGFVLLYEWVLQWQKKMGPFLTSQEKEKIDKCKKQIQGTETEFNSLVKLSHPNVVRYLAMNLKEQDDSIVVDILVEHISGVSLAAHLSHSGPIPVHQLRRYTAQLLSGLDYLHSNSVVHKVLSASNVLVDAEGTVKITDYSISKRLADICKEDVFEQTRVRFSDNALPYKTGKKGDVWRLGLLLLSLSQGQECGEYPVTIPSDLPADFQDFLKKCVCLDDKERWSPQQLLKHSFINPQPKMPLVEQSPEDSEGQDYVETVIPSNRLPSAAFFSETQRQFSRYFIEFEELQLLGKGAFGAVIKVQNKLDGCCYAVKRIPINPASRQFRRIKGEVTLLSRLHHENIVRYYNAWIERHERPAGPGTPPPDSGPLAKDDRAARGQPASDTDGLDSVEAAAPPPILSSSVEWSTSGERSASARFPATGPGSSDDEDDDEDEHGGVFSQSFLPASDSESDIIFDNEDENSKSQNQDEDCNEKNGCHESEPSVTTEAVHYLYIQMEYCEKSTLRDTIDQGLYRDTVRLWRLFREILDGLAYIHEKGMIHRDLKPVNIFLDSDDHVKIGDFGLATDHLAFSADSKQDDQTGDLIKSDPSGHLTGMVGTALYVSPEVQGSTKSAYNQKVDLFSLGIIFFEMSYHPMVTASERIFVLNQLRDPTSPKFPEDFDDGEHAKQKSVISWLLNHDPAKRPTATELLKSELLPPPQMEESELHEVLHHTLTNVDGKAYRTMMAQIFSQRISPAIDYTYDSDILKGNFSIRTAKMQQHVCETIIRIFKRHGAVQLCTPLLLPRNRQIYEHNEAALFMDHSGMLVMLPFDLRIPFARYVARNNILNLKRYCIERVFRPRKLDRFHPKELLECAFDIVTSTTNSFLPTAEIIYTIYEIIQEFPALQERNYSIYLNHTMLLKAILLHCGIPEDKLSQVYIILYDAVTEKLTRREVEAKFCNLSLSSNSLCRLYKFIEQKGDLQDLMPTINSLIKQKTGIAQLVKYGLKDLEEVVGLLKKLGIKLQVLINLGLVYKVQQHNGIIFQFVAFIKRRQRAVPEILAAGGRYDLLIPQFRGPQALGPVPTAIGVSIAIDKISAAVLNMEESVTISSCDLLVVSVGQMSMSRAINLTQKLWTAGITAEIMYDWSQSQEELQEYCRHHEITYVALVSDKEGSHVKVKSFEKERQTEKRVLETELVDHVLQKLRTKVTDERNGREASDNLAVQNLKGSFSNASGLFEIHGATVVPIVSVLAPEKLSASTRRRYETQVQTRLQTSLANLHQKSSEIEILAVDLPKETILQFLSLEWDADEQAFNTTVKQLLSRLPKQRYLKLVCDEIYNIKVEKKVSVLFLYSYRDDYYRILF

Row | IC50 | SMILES
1 | < 500 nM | COc1ncccc1S(=O)(=O)Nc1ncc(F)c(-c2ccc3c(-c4ncc[nH]4)n[nH]c3c2F)c1F [Example 2CL, N-(3,5-difluoro-4-(7-fluoro-3-(1H-imidazol-2-yl)-1H-indazol-6-yl)pyridin-2-yl)-2-methoxypyridine-3-sulfonamide]
2 | 500 to 2500 nM | COc1ncc(Cl)cc1S(=O)(=O)Nc1ccc(F)c(-c2ccc3c(NC(C)=O)n[nH]c3c2F)c1F [Example 8, N-(6-(3-((5-Chloro-2-methoxypyridine)-3-sulfonamido)-2,6-difluorophenyl)-7-fluoro-1H-indazol-3-yl)acetamide]
3 | < 500 nM | COc1ncc(Cl)cc1S(=O)(=O)Nc1ccc(F)c(-c2ccc3c(C(=O)NC(C)C)n[nH]c3c2F)c1F [Example 2CK, 6-(3-((5-chloro-2-methoxy-pyridine)-3-sulfonamido)-2,6-difluorophenyl)-7-fluoro-N-isopropyl-1H-indazole-3-carboxamide]
4 | 500 to 2500 nM | COc1ncc(Cl)cc1S(=O)(=O)Nc1ccc(F)c(-c2ccc3c(N)n[nH]c3c2F)c1F [Example 7, N-(3-(3-Amino-7-fluoro-1H-indazol-6-yl)-2,4-difluorophenyl)-5-chloro-2-methoxypyridine-3-sulfonamide]

same assay, conditions: Table 9

Row | IC50 | SMILES
5 | < 500 nM | COc1ncc(F)cc1S(=O)(=O)Nc1cc(F)cc(-c2ccc3c(C(=O)NCCCN(C)C)n[nH]c3c2F)c1F [Example 3BK, 6-(3-((5-fluoro-2-methoxy-pyridine)-3-sulfonamido)-2,5-difluorophenyl)-N-(3-(dimethylamino)propyl)-7-fluoro-1H-indazole-3-carboxamide]
6 | < 500 nM | COc1ncc(C#N)cc1S(=O)(=O)Nc1ccc(F)c(-c2ccc3c(-c4ncc[nH]4)n[nH]c3c2F)c1F [Example 3DJ, 5-cyano-N-(2,4-difluoro-3-(7-fluoro-3-(1H-imidazol-2-yl)-1H-indazol-6-yl)phenyl)-2-methoxypyridine-3-sulfonamide]
7 | < 500 nM | COc1ncc(C#N)cc1S(=O)(=O)Nc1cc(F)cc(-c2ccc3c(C(=O)NCCCO)n[nH]c3c2F)c1F [Example 3DP, 6-(3-((5-cyano-2-methoxy-pyridine)-3-sulfonamido)-2,5-difluorophenyl)-7-fluoro-N-(3-hydroxypropyl)-1H-indazole-3-carboxamide]
8 | < 500 nM | COc1ncc(F)cc1S(=O)(=O)Nc1ccc(F)c(-c2ccc3c(C(N)=O)n[nH]c3c2F)c1F [Example 3T, 6-(2,6-difluoro-3-((5-fluoro-2-methoxypyridine)-3-sulfonamido)phenyl)-7-fluoro-1H-indazole-3-carboxamide]
9 | 500 to 2500 nM | Cc1ncc(F)cc1S(=O)(=O)Nc1cccc(-c2ccc3c(-c4ncc[nH]4)n[nH]c3c2Cl)c1F [Example 3N, N-(3-(7-chloro-3-(1H-imidazol-2-yl)-1H-indazol-6-yl)-2-fluorophenyl)-5-fluoro-2-methylpyridine-3-sulfonamide]
10 | > 10000 nM | COc1ncccc1S(=O)(=O)Nc1ccnc(-c2ccc3c(-c4ncc[nH]4)n[nH]c3c2F)c1C#N [Example 3G, N-(3-cyano-2-(7-fluoro-3-(1H-imidazol-2-yl)-1H-indazol-6-yl)pyridin-4-yl)-2-methoxypyridine-3-sulfonamide]
11 | < 500 nM | Cc1ncc(C#N)cc1S(=O)(=O)Nc1ccc(F)c(-c2ccc3c(C(N)=O)n[nH]c3c2F)c1F [Example 4E]
12 | < 500 nM | COc1ncc(Cl)cc1S(=O)(=O)Nc1cc(F)cc(-c2ccc3c(C(=O)NCCCN(C)C)n[nH]c3c2F)c1F [Example 3BB, 6-(3-((5-chloro-2-methoxy-pyridine)-3-sulfonamido)-2,5-difluorophenyl)-N-(3-(dimethylamino)propyl)-7-fluoro-1H-indazole-3-carboxamide]
13 | < 500 nM | COc1ncc(F)cc1S(=O)(=O)Nc1cccc(-c2ccc3c(C(=O)NCC[C@H](O)CO)n[nH]c3c2F)c1F [Example 3BG, 6-(2-fluoro-3-((5-fluoro-2-methoxypyridine)-3-sulfonamido)phenyl)-N-((S)-3,4-dihydroxybutyl)-7-fluoro-1H-indazole-3-carboxamide]

Reference: patent publication US20220388964A1 (HiberCell, Inc., priority 2019, published 2022)
